According to ChEMBL document CHEMBL1201862, “PubChem BioAssay data set” (2004):
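A five-concentration, 48-hour dose response in 96-well plates underlies each endpoint, interpolated linearly between surrounding concentrations. The concentration for 50% growth inhibition is given as GI50.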 The source made the active and inactive calls. No stated cut-off is given here; in the data, active = GI50 up to about 1.1 µM and inactive = higher.

Key:
Assay in all cases: growth of human tumour cells (NCI), 48 h
786-0 = system: 786-0
A498 = system: A498
A549 = system: A549
ACHN = system: ACHN
BT-549 = system: BT-549
CAKI-1 = system: CAKI-1
CCRF-CEM = system: CCRF-CEM
COLO 205 = system: COLO 205
DU-145 = system: DU-145
EKVX = system: EKVX
HCC 2998 = system: HCC 2998
HCT-116 = system: HCT-116
HCT-15 = system: HCT-15
HOP-62 = system: HOP-62
HOP-92 = system: HOP-92
HT-29 = system: HT-29
IGROV-1 = system: IGROV-1
K562 = system: K562
KM12 = system: KM12
LOX IMVI = system: LOX IMVI
M14 = system: M14
MCF7 = system: MCF7
MDA-MB-231 = system: MDA-MB-231
MDA-MB-435 = system: MDA-MB-435
MDA-N = system: MDA-N
MOLT-4 = system: MOLT-4
Malme-3M = system: Malme-3M
NCI-H226 = system: NCI-H226
NCI-H23 = system: NCI-H23
NCI-H460 = system: NCI-H460
NCI-H522 = system: NCI-H522
NCI/ADR-RES = system: NCI/ADR-RES
OVCAR-3 = system: OVCAR-3
OVCAR-4 = system: OVCAR-4
OVCAR-5 = system: OVCAR-5
OVCAR-8 = system: OVCAR-8
PC-3 = system: PC-3
RXF 393 = system: RXF 393
SF-268 = system: SF-268
SF-295 = system: SF-295
SF-539 = system: SF-539
SK-MEL-28 = system: SK-MEL-28
SK-MEL-2 = system: SK-MEL-2
SK-MEL-5 = system: SK-MEL-5
SK-OV-3 = system: SK-OV-3
SN12C = system: SN12C
SNB-19 = system: SNB-19
SNB-75 = system: SNB-75
SR = system: SR
SW-620 = system: SW-620
T47D = system: T47D
TK-10 = system: TK-10
U-251 = system: U-251
UACC-257 = system: UACC-257
UACC-62 = system: UACC-62
UO-31 = system: UO-31
RPMI-8226 = system: RPMI-8226
HL-60 = system: HL-60

## CCCCOC(C)(C)/C=C/C(O)[C@](C)(O)[C@H]1[C@H](O)C[C@@]2(C)[C@@H]3CCc4c(cc(OC5OC(CO)C(O)C(O)C5O)c(O)c4C)C3(C)C(=O)C[C@]12C (stereo partly drawn)
786-0
  GI50: > 100 µM (inactive)
A498
  GI50: > 100 µM (inactive)
A549
  GI50: > 100 µM (inactive)
ACHN
  GI50: > 100 µM (inactive)
BT-549
  GI50: > 100 µM (inactive)
CAKI-1
  GI50: > 100 µM (inactive)
CCRF-CEM
  GI50: > 100 µM (inactive)
COLO 205
  GI50: > 100 µM (inactive)
DU-145
  GI50: > 100 µM (inactive)
EKVX
  GI50: > 100 µM (inactive)
HCC 2998
  GI50: > 100 µM (inactive)
HCT-116
  GI50: > 100 µM (inactive)
HCT-15
  GI50: > 100 µM
HOP-62
  GI50: > 100 µM (inactive)
HOP-92
  GI50: > 100 µM (inactive)
HT-29
  GI50: > 100 µM (inactive)
IGROV-1
  GI50: > 100 µM (inactive)
K562
  GI50: > 100 µM (inactive)
KM12
  GI50: > 100 µM (inactive)
LOX IMVI
  GI50: > 100 µM (inactive)
M14
  GI50: > 100 µM (inactive)
MCF7
  GI50: > 100 µM (inactive)
MDA-MB-231
  GI50: > 100 µM (inactive)
MDA-MB-435
  GI50: > 100 µM (inactive)
MDA-N
  GI50: > 100 µM (inactive)
MOLT-4
  GI50: > 100 µM (inactive)
Malme-3M
  GI50: > 100 µM (inactive)
NCI-H226
  GI50: > 100 µM (inactive)
NCI-H23
  GI50: > 100 µM (inactive)
NCI-H460
  GI50: > 100 µM (inactive)
NCI-H522
  GI50: > 100 µM (inactive)
NCI/ADR-RES
  GI50: > 100 µM (inactive)
OVCAR-3
  GI50: > 100 µM (inactive)
OVCAR-4
  GI50: > 100 µM (inactive)
OVCAR-5
  GI50: > 100 µM (inactive)
OVCAR-8
  GI50: > 100 µM (inactive)
PC-3
  GI50: > 100 µM (inactive)
RXF 393
  GI50: > 100 µM (inactive)
SF-268
  GI50: > 100 µM (inactive)
SF-295
  GI50: > 100 µM (inactive)
SF-539
  GI50: > 100 µM (inactive)
SK-MEL-28
  GI50: > 100 µM (inactive)
SK-MEL-2
  GI50: > 100 µM (inactive)
SK-MEL-5
  GI50: > 100 µM (inactive)
SK-OV-3
  GI50: > 100 µM (inactive)
SN12C
  GI50: > 100 µM (inactive)
SNB-19
  GI50: > 100 µM (inactive)
SNB-75
  GI50: > 100 µM (inactive)
SR
  GI50: > 100 µM (inactive)
SW-620
  GI50: > 100 µM (inactive)
T47D
  GI50: > 100 µM (inactive)
TK-10
  GI50: > 100 µM (inactive)
U-251
  GI50: > 100 µM (inactive)
UACC-257
  GI50: > 100 µM (inactive)
UACC-62
  GI50: > 100 µM (inactive)
UO-31
  GI50: > 100 µM (inactive)

## CCOc1ccc(N/C(=C(/C(Cl)=C(/Cl)Nc2ccccc2)[N+](=O)[O-])n2nnc3ccccc32)cc1
786-0
  GI50: 22.2 µM (inactive)
A498
  GI50: > 100 µM (inactive)
A549
  GI50: 29.1 µM (inactive)
ACHN
  GI50: 25.8 µM (inactive)
BT-549
  GI50: 13.3 µM (inactive)
CAKI-1
  GI50: 23.5 µM (inactive)
COLO 205
  GI50: 20.7 µM (inactive)
DU-145
  GI50: 45.9 µM (inactive)
EKVX
  GI50: 28.8 µM (inactive)
HCC 2998
  GI50: 37.7 µM (inactive)
HCT-116
  GI50: 22.8 µM (inactive)
HCT-15
  GI50: 12.8 µM
HOP-62
  GI50: 24.5 µM (inactive)
HOP-92
  GI50: 16 µM (inactive)
K562
  GI50: 28.8 µM (inactive)
KM12
  GI50: 32.7 µM (inactive)
M14
  GI50: 16 µM (inactive)
MCF7
  GI50: 35.7 µM (inactive)
MDA-MB-231
  GI50: 24.5 µM (inactive)
MDA-MB-435
  GI50: 29.4 µM (inactive)
MDA-N
  GI50: 19.8 µM (inactive)
MOLT-4
  GI50: 14.8 µM (inactive)
Malme-3M
  GI50: 21.9 µM (inactive)
NCI-H226
  GI50: 40.1 µM (inactive)
NCI-H23
  GI50: 13.7 µM (inactive)
NCI-H460
  GI50: 27 µM (inactive)
NCI-H522
  GI50: 14 µM (inactive)
NCI/ADR-RES
  GI50: 20 µM (inactive)
OVCAR-3
  GI50: 24.1 µM (inactive)
OVCAR-4
  GI50: 42.5 µM (inactive)
OVCAR-5
  GI50: 35.5 µM (inactive)
PC-3
  GI50: 23.2 µM (inactive)
RPMI-8226
  GI50: 50.7 µM (inactive)
SF-268
  GI50: 18.6 µM (inactive)
SF-295
  GI50: 51.3 µM (inactive)
SK-MEL-28
  GI50: 22.8 µM (inactive)
SK-MEL-2
  GI50: 26.3 µM (inactive)
SK-MEL-5
  GI50: 17.7 µM (inactive)
SK-OV-3
  GI50: 40 µM (inactive)
SN12C
  GI50: 20.8 µM (inactive)
SNB-19
  GI50: 30.1 µM (inactive)
SNB-75
  GI50: 57.1 µM (inactive)
T47D
  GI50: 40.5 µM (inactive)
TK-10
  GI50: 32.9 µM (inactive)
U-251
  GI50: 18.2 µM (inactive)
UACC-257
  GI50: 34.6 µM (inactive)
UACC-62
  GI50: 17.8 µM (inactive)
UO-31
  GI50: 17.1 µM (inactive)

## CC(NO)/C(=N/O)c1ccco1 (stereo not drawn)
786-0
  GI50: > 10 µM (inactive)
A549
  GI50: > 10 µM (inactive)
ACHN
  GI50: > 10 µM (inactive)
BT-549
  GI50: > 10 µM (inactive)
CAKI-1
  GI50: > 10 µM (inactive)
CCRF-CEM
  GI50: > 10 µM (inactive)
COLO 205
  GI50: > 10 µM (inactive)
DU-145
  GI50: > 10 µM (inactive)
EKVX
  GI50: > 10 µM (inactive)
HCC 2998
  GI50: > 10 µM (inactive)
HCT-116
  GI50: > 10 µM (inactive)
HCT-15
  GI50: > 10 µM
HL-60
  GI50: > 10 µM (inactive)
HOP-62
  GI50: > 10 µM (inactive)
HOP-92
  GI50: > 10 µM (inactive)
HT-29
  GI50: > 10 µM (inactive)
K562
  GI50: > 10 µM (inactive)
KM12
  GI50: > 10 µM (inactive)
M14
  GI50: > 10 µM (inactive)
MCF7
  GI50: > 10 µM (inactive)
MDA-MB-231
  GI50: > 10 µM (inactive)
MDA-MB-435
  GI50: > 10 µM (inactive)
MDA-N
  GI50: > 10 µM (inactive)
MOLT-4
  GI50: > 10 µM (inactive)
Malme-3M
  GI50: > 10 µM (inactive)
NCI-H226
  GI50: > 10 µM (inactive)
NCI-H23
  GI50: > 10 µM (inactive)
NCI-H460
  GI50: > 10 µM (inactive)
NCI-H522
  GI50: > 10 µM (inactive)
NCI/ADR-RES
  GI50: > 10 µM (inactive)
OVCAR-3
  GI50: > 10 µM (inactive)
OVCAR-4
  GI50: > 10 µM (inactive)
OVCAR-5
  GI50: > 10 µM (inactive)
OVCAR-8
  GI50: > 10 µM (inactive)
PC-3
  GI50: > 10 µM (inactive)
RPMI-8226
  GI50: > 10 µM (inactive)
RXF 393
  GI50: > 10 µM (inactive)
SF-268
  GI50: > 10 µM (inactive)
SF-295
  GI50: > 10 µM (inactive)
SK-MEL-2
  GI50: > 10 µM (inactive)
SN12C
  GI50: > 10 µM (inactive)
SNB-19
  GI50: > 10 µM (inactive)
SR
  GI50: > 10 µM (inactive)
SW-620
  GI50: > 10 µM (inactive)
T47D
  GI50: > 10 µM (inactive)
TK-10
  GI50: > 10 µM (inactive)
U-251
  GI50: > 10 µM (inactive)
UACC-257
  GI50: > 10 µM (inactive)
UO-31
  GI50: > 10 µM (inactive)
